Data reported in patent US20230295197A1, “STAT5 and STAT6 Degraders and Uses Thereof” (REGENTS OF THE UNIVERSITY OF MICHICAN, priority 2022, published 2023).
Read-outs that look alike come from different tables or passages of the source.

What was measured:
STAT6 = molecular target: T1, STAT6 (Homo sapiens, UniProt P42226); assay: Immunoblotting (Western blot) analysis of STAT6 degradation efficiency of degraders in treated cells; type: cell-based
T1 construct: endogenous in cells; host or cells: MOLM-16, KU-812, SKNO1, MB231, L1236
T1 sequence (P42226 1-847): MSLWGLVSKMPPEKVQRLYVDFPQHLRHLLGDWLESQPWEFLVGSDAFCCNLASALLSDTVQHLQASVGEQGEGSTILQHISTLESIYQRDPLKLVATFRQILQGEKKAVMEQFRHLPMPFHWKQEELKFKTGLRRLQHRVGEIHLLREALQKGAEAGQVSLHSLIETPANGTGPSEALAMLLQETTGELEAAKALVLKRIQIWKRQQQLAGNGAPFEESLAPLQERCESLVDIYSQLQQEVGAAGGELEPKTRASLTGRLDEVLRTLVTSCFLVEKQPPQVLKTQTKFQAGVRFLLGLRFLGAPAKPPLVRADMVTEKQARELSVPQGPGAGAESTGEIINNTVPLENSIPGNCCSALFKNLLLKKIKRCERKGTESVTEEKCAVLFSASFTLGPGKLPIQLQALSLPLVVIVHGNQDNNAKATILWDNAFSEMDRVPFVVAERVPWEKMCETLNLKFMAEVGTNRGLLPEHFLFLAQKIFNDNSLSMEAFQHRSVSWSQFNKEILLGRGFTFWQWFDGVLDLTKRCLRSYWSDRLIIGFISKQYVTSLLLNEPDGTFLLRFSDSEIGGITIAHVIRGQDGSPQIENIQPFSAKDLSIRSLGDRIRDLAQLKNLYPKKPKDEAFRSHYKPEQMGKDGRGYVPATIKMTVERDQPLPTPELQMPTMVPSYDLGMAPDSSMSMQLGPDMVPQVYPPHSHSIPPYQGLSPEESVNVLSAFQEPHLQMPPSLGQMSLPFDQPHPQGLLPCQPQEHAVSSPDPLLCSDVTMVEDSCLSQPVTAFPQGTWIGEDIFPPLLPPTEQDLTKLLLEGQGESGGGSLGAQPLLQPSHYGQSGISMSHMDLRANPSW
Procedure, shortened: (§1)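 Degradation read by quantitative near-infrared Western blot: equal protein loads (20-40 μg) from compound-treated versus untreated cells, probed overnight at 4° C. for STAT5 or STAT6 with GAPDH reference. Compound concentrations and exposure times as indicated; cells grown in medium with 10% FBS at 37° C.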

STAT5 = assay: Immunoblotting (Western blot) analysis of STAT5 degradation efficiency of degraders in treated cells; type: cell-based
Procedure, shortened: as §1

[1] = MOLM-16 cells, numeric bound, read-out: DC50 S6 MOLM-16
[2] = MOLM-16 cells, class symbols, read-out: DC50 S5 MOLM-16
[3] = MOLM-16 cells, numeric bound, read-out: DC50 S5 MOLM-16
[4] = SKNO1 cells, read-out: DC50 S5 SKNO1
[5] = MOLM-16 cells, class symbols, read-out: DC50 S6 MOLM-16
[6] = KU-812 cells, read-out: DC50 S5 KU-812

Structure (SMILES) | DC50 (STAT6; [1]) | DC50 (STAT5; [2]) | DC50 (STAT5; [3]) | DC50 (STAT5; [4]) | DC50 (STAT6; KU-812 cells, read-out: DC50 S6 KU-812) | DC50 (STAT6; [5]) | DC50 (STAT6; SKNO1 cells, read-out: DC50 S6 SKNO1) | DC50 (STAT5; [6]) | DC50 (STAT6; MB231 cells, read-out: DC50 S6 MB231)
CC(C)(C)[C@H](NC(=O)c1cc2cc(C(F)(F)P(=O)(O)O)ccc2s1)C(=O)N1CCC[C@H]1C(=O)N1C[C@@H](Oc2ccccc2)C[C@H]1C(=O)NCCCC#Cc1cccc2c1CN(C1CCC(=O)NC1=O)C2=O (stereo partly drawn) [Compound 658, ((2-(((2S)-1-((2S)-2-((2S,4S)-2-((5-(2-(2,6-dioxopiperidin-3-yl)-1-oxoisoindolin-4-yl)pent-4-yn-1-yl)carbamoyl)-4-phenoxypyrrolidine-1-carbonyl)pyrrolidin-1-yl)-3,3-dimethyl-1-oxobutan-2-yl)carbamoyl)benzo[b]thiophen-5-yl)difluoromethyl)phosphonic acid] | > 300 nM | – | > 300 nM | – | – | – | – | – | –
CC(C)(C)[C@H](NC(=O)c1cc2cc(C(F)(F)P(=O)(O)O)ccc2s1)C(=O)N1CCC[C@H]1C(=O)N(CCCCCCCC#Cc1cccc2c1CN(C1CCC(=O)NC1=O)C2=O)c1ccc(-c2nccs2)cc1 (stereo partly drawn) [Compound 670, ((2-(((2S)-1-((2S)-2-((9-(2-(2,6-dioxopiperidin-3-yl)-1-oxoisoindolin-4-yl)non-8-yn-1-yl)(4-(thiazol-2-yl)phenyl)carbamoyl)pyrrolidin-1-yl)-3,3-dimethyl-1-oxobutan-2-yl)carbamoyl)benzo[b]thiophen-5-yl)difluoromethyl)phosphonic acid] | > 300 nM | – | > 300 nM | > 10000 nM | – | – | – | – | –
Cc1ncsc1-c1ccc([C@H](CC(=O)NCCCCCCC(=O)N[C@@H]2C[C@@H](C(=O)Nc3ncc(-c4ccccc4)s3)N(C(=O)[C@@H](NC(=O)c3cc4cc(C(F)(F)P(=O)(O)O)ccc4s3)C(C)(C)C)C2)NC(=O)[C@@H]2C[C@@H](O)CN2C(=O)[C@@H](NC(=O)C2(F)CC2)C(C)(C)C)cc1 [Compound 576, (difluoro(2-(((S)-1-((2S,4R)-4-(7-((S)-3-((2S,4R)-1-((S)-2-(1-fluorocyclopropane-1-carboxamido)-3,3-dimethylbutanoyl)-4-hydroxypyrrolidine-2-carboxamido)-3-(4-(4-methylthiazol-5-yl)phenyl)propanamido)heptanamido)-2-((5-phenylthiazol-2-yl)carbamoyl)pyrrolidin-1-yl)-3,3-dimethyl-1-oxobutan-2-yl)carbamoyl)benzo[b]thiophen-5-yl)methyl)phosphonic acid] | > 300 nM | – | > 300 nM | – | – | – | – | – | –
CC(C)(C)[C@H](NC(=O)c1cc2cc(C(F)(F)P(=O)(O)O)ccc2s1)C(=O)N1CCC[C@H]1C(=O)N(CCC(=O)NCCCCCCC#Cc1cccc2c1CN(C1CCC(=O)NC1=O)C2=O)c1ccc(Br)cc1 (stereo partly drawn) [Compound 404, ((2-(((2S)-1-((2S)-2-((4-bromophenyl)(3-((8-(2-(2,6-dioxopiperidin-3-yl)-1-oxoisoindolin-4-yl)oct-7-yn-1-yl)amino)-3-oxopropyl)carbamoyl)pyrrolidin-1-yl)-3,3-dimethyl-1-oxobutan-2-yl)carbamoyl)benzo[b]thiophen-5-yl)difluoromethyl)phosphonic acid] | – | 100 to 1000 nM | – | 1000 to 10000 nM | – | > 10000 nM | – | 100 to 1000 nM | > 10000 nM
CC(C)(C)[C@H](NC(=O)c1cc2cc(C(F)(F)P(=O)(O)O)ccc2s1)C(=O)N1CCC[C@H]1C(=O)N(CCC(=O)N1CC(CC#Cc2cccc3c2CN(C2CCC(=O)NC2=O)C3=O)C1)c1ccc(Br)cc1 (stereo partly drawn) [Compound 667, ((2-(((2S)-1-((2S)-2-((4-bromophenyl)(3-(3-(3-(2-(2,6-dioxopiperidin-3-yl)-1-oxoisoindolin-4-yl)prop-2-yn-1-yl)azetidin-1-yl)-3-oxopropyl)carbamoyl)pyrrolidin-1-yl)-3,3-dimethyl-1-oxobutan-2-yl)carbamoyl)benzo[b]thiophen-5-yl)difluoromethyl)phosphonic acid] | > 300 nM | – | > 300 nM | > 10000 nM | – | – | – | > 10000 nM | –
CC(C)(C)[C@H](NC(=O)c1cc2cc(C(F)(F)P(=O)(O)O)ccc2s1)C(=O)N1CCC[C@H]1C(=O)N(CCC(=O)NCCCC#Cc1cccc2c1CN(C1CCC(=O)NC1=O)C2=O)c1ccc(-c2ccccc2)cc1 (stereo partly drawn) [Compound 663, ((2-(((2S)-1-((2S)-2-([1,1′-biphenyl]-4-yl(3-((5-(2-(2,6-dioxopiperidin-3-yl)-1-oxoisoindolin-4-yl)pent-4-yn-1-yl)amino)-3-oxopropyl)carbamoyl)pyrrolidin-1-yl)-3,3-dimethyl-1-oxobutan-2-yl)carbamoyl)benzo[b]thiophen-5-yl)difluoromethyl)phosphonic acid] | > 300 nM | – | > 300 nM | 1000 to 10000 nM | – | – | – | 1000 to 10000 nM | –
CN(CCCC#Cc1cccc2c1CN(C1CCC(=O)NC1=O)C2=O)C(=O)CCN(C(=O)[C@@H]1CCCN1C(=O)[C@@H](NC(=O)c1cc2cc(C(F)(F)P(=O)(O)O)ccc2s1)C(C)(C)C)c1ccc(Br)cc1 (stereo partly drawn) [Compound 665, ((2-(((2S)-1-((2S)-2-((4-bromophenyl)(3-((5-(2-(2,6-dioxopiperidin-3-yl)-1-oxoisoindolin-4-yl)pent-4-yn-1-yl)(methyl)amino)-3-oxopropyl)carbamoyl)pyrrolidin-1-yl)-3,3-dimethyl-1-oxobutan-2-yl)carbamoyl)benzo[b]thiophen-5-yl)difluoromethyl)phosphonic acid] | > 300 nM | < 100 nM | – | 100 to 1000 nM | – | – | – | 100 to 1000 nM | –

Results, then the molecule that gave them:

DC50 (STAT6; [1]) | DC50 (STAT5; [2]) | DC50 (STAT5; [3]) | DC50 (STAT5; [4]) | DC50 (STAT6; KU-812 cells, read-out: DC50 S6 KU-812) | DC50 (STAT6; [5]) | DC50 (STAT6; SKNO1 cells, read-out: DC50 S6 SKNO1) | DC50 (STAT5; [6]) | DC50 (STAT6; MB231 cells, read-out: DC50 S6 MB231) | Structure (SMILES)
> 300 nM | < 100 nM | – | – | – | – | – | – | – | CN(CCCC#Cc1cccc2c1CN(C1CCC(=O)NC1=O)C2=O)C(=O)CCN(C(=O)[C@@H]1CCCN1C(=O)[C@@H](NC(=O)c1cc2cc(C(F)(F)P(=O)(O)OCOC(=O)C(C)(C)C)ccc2s1)C(C)(C)C)c1ccc2ccoc2c1 (stereo partly drawn) [Compound 674, ((((2-(((2S)-1-((2S)-2-(benzofuran-6-yl(3-((5-(2-(2,6-dioxopiperidin-3-yl)-1-oxoisoindolin-4-yl)pent-4-yn-1-yl)(methyl)amino)-3-oxopropyl)carbamoyl)pyrrolidin-1-yl)-3,3-dimethyl-1-oxobutan-2-yl)carbamoyl)benzo[b]thiophen-5-yl)difluoromethyl)(hydroxy)phosphoryl)oxy)methyl pivalate]
– | < 100 nM | – | 100 to 1000 nM | > 10000 nM | > 10000 nM | > 10000 nM | 100 to 1000 nM | – | CN(CCCC#Cc1cccc2c1CN(C1CCC(=O)NC1=O)C2=O)C(=O)CCN(C(=O)[C@@H]1CCCN1C(=O)[C@@H](NC(=O)c1cc2cc(C(F)(F)P(=O)(O)O)ccc2s1)C(C)(C)C)c1ccc(-c2nccs2)cc1 (stereo partly drawn) [Compound 681, ((2-(((2S)-1-((2S)-2-((3-((5-(2-(2,6-Dioxopiperidin-3-yl)-1-oxoisoindolin-4-yl)pent-4-yn-1-yl)(methyl)amino)-3-oxopropyl)(4-(thiazol-2-yl)phenyl)carbamoyl)pyrrolidin-1-yl)-3,3-dimethyl-1-oxobutan-2-yl)carbamoyl)benzo[b]thiophen-5-yl)difluoromethyl)phosphonic acid]
> 300 nM | < 100 nM | – | – | – | – | – | – | – | CN(CCCC#Cc1cccc2c1CN(C1CCC(=O)NC1=O)C2=O)C(=O)CCN(C(=O)[C@@H]1CCCN1C(=O)[C@@H](NC(=O)c1cc2cc(C(F)(F)P(=O)(O)OCOC(=O)C(C)(C)C)ccc2s1)C(C)(C)C)c1ccc2sccc2c1 (stereo partly drawn) [Compound 671, ((((2-(((2S)-1-((2S)-2-(benzo[b]thiophen-5-yl(3-((5-(2-(2,6-dioxopiperidin-3-yl)-1-oxoisoindolin-4-yl)pent-4-yn-1-yl)(methyl)amino)-3-oxopropyl)carbamoyl)pyrrolidin-1-yl)-3,3-dimethyl-1-oxobutan-2-yl)carbamoyl)benzo[b]thiophen-5-yl)difluoromethyl)(hydroxy)phosphoryl)oxy)methyl pivalate]
> 300 nM | < 100 nM | – | – | – | – | – | – | – | CN(CCCC#Cc1cccc2c1CN(C1CCC(=O)NC1=O)C2=O)C(=O)CCN(C(=O)[C@@H]1CCCN1C(=O)[C@@H](NC(=O)c1cc2cc(C(F)(F)P(=O)(O)OCOC(=O)C(C)(C)C)ccc2s1)C(C)(C)C)c1ccc2scnc2c1 (stereo partly drawn) [Compound 676, ((((2-(((2S)-1-((2S)-2-(benzo[d]thiazol-5-yl(3-((5-(2-(2,6-dioxopiperidin-3-yl)-1-oxoisoindolin-4-yl)pent-4-yn-1-yl)(methyl)amino)-3-oxopropyl)carbamoyl)pyrrolidin-1-yl)-3,3-dimethyl-1-oxobutan-2-yl)carbamoyl)benzo[b]thiophen-5-yl)difluoromethyl)(hydroxy)phosphoryl)oxy)methyl pivalate]
